This is an account of results in patent publication US8846762B2, “Benzopyran and benzoxepin PI3K inhibitor compounds and methods of use” (Genentech, Inc., priority 2008, dated 2014).

For one data set, the system named is pAkt (phospho-Akt). As to the kind of experiment: phospho AKT induction assay. The format is cell-based. Conditions: in each study (Example 284); cells treated with an EC80 of the compound.
A short description of data set [1]: Body weight change over the course of treatment in the xenograft study, as an indicator of safety. The conditions noted are these: 50 and 100 mg/kg, orally daily for 21 days. The format is in vivo, Taconic nude mice.

SMILES strings stand for the structures.

Description for pAkt (phospho-Akt): In a 6-well tissue culture plate cells were seeded at 5×10^5 cells per well overnight. […] Determination of protein concentration was performed using the Pierce BCA Protein Assay Kit (Rockford, Ill.). Levels of pAkt (Ser^473) and total Akt were assessed using bead kits from Biosource (Carlsbad, Calif.) and the Luminex Bio-Plex system (Bio-Rad, Hercules, Calif.).

In the case of `CNC(=O)c1ccc2c(c1)OCCc1cc(C(=O)N(C)c3ccc(C(=O)N(C)C)cc3Cl)sc1-2` [Compound 223, N2-(2-chloro-4-(dimethylcarbamoyl)phenyl)-N2,N8-dimethyl-4,5-dihydrobenzo[b]thieno[2,3-d]oxepine-2,8-dicarboxamide], the “pAkt (phospho-Akt), a potential biomarker of PI3K signal transduction disruption” value in the data set with pAkt (phospho-Akt) was “suppressed pAkt”. Also, the “body weights compared with the group administered Vehicle” value in data set [1] is listed as “did not significantly differ”.
